From ChEMBL document CHEMBL2424604, “Design, synthesis and QSAR studies of dispiroindole derivatives as new antiproliferative agents” (Eur J Med Chem, 2013)
pIC50: −log10 of the molar value.

Tests used:
Type in all cases: functional, cell-based
PC-3 = assay: Cytotoxicity against human PC3 cells after 48 hrs by SRB assay; conditions: PC-3, 48 h
HepG2 = assay: Cytotoxicity against human HepG2 cells after 48 hrs by SRB assay; conditions: HepG2, 48 h
HeLa = assay: Cytotoxicity against human HeLa cells after 48 hrs by SRB assay

Structure (SMILES) | pIC50 (PC-3) | pIC50 (HepG2) | pIC50 (HeLa)
COc1ccc(/C=C2\CCC[C@]3(C2=O)[C@H](c2ccc(OC)c(OC)c2)CN(C)[C@]32C(=O)N(CN3CCOCC3)c3ccccc32)cc1OC | 4.49 | 5.16 | 4.96
CN1C[C@@H](c2ccc(Cl)cc2Cl)[C@@]2(CCC/C(=C\c3ccc(Cl)cc3Cl)C2=O)[C@@]12C(=O)N(CN1CCOCC1)c1ccccc12 | 4.66 | 4.60 | 4.65
COc1ccc(/C=C2\CCC[C@]3(C2=O)[C@H](c2ccc(OC)cc2)CN(C)[C@]32C(=O)N(CN3CCOCC3)c3ccccc32)cc1 | 4.23 | 4.73 | 4.73
CN1C[C@@H](c2cccs2)[C@@]2(CCC/C(=C\c3cccs3)C2=O)[C@@]12C(=O)N(CN1CCOCC1)c1ccccc12 | 4.52 | 4.52 | 4.56
Cc1ccc(/C=C2\CCC[C@]3(C2=O)[C@H](c2ccc(C)o2)CN(C)[C@]32C(=O)N(CN3CCOCC3)c3ccccc32)o1 | 4.67 | 4.55 | 4.74
Cc1ccc(/C=C2\CCC[C@]3(C2=O)[C@H](c2ccc(C)cc2)CN(C)[C@]32C(=O)N(CN3CCOCC3)c3ccccc32)cc1 | 4.48 | 4.66 | 4.88
COc1cccc2c1C(=O)c1c(O)c3c(c(O)c1C2=O)C[C@@](O)(C(=O)CO)C[C@@H]3O[C@H]1C[C@H](N)[C@H](O)[C@H](C)O1 [DOXORUBICIN] | 5.05 |  | 5.11
CN1C[C@@H](c2ccc(F)cc2)[C@@]2(CCC/C(=C\c3ccc(F)cc3)C2=O)[C@@]12C(=O)N(CN1CCOCC1)c1ccccc12 | 4.71 | 5.09 | 5.16
CN1C[C@@H](c2ccccc2)[C@@]2(CCC/C(=C\c3ccccc3)C2=O)[C@@]12C(=O)N(CN1CCOCC1)c1ccccc12 | 4.57 | 4.87 | 4.83
